Tests used:
[1] = test system: A2780 human ovarian tumor xenograft; experiment: In vivo oral antitumor activity vs Sc A2780; conditions: po gavage; for Oral Efficacy vs. Sc A2780 Log Cell Kill: q2d x 5, at optimal or maximum tolerated dose of Table III (mg/kg per administration), log cell kill = (T-C)/(TVDT x 3.32); for Oral Efficacy vs. Sc A2780 (Cures/Treated): q2d x 5, same dose as log cell kill, cure = tumor of 35 mg or less at termination
Method: The experiments were carried out using athymic (“nude”) mice. […] The compound was administered at the dose indicated in Table III, namely, once daily every other day for five treatments (i.e. q2dx5).

[2] = test system: tumors in mice; conditions: AACR 1999 abstract 1905; cited from earlier work
[3] = test system: human or animal models; conditions: cited from earlier work; for Oral activity in human or animal models: prior art
[4] = administered orally; quote from WO98/53811; cited from earlier work
[5] = test system: human tumor xenografts; experiment: Orally administered paclitaxel against human tumor xenografts; conditions: oral; athymic mice or athymic rats

COC(=O)OC12COC1CC(O)C1(C)C(=O)C(OC(C)=O)C3=C(C)C(OC(=O)C(O)C(NC(=O)c4ccco4)C(C)(C)C)CC(O)(C(OC(=O)c4ccccc4)C21)C3(C)C (centres unmarked) [Ik, 3′-N-Debenzoyl-3′-N-(2-furoyl)-3′-dephenyl-3′-tert-butyl-4-deacetyl-4-methoxycarbonyl Paclitaxel]
Oral Efficacy vs. Sc A2780 Log Cell Kill [1]: 2.2
Oral Efficacy vs. Sc A2780 (Cures/Treated) [1]: 0/8

COC(=O)O[C@@]12COC1C[C@H](O)[C@@]1(C)C(=O)[C@H](OC(C)=O)C3=C(C)[C@@H](OC(=O)[C@H](O)[C@@H](NC(=O)OC(C)(C)C)C(C)(C)C)C[C@@](O)([C@@H](OC(=O)c4ccccc4)C21)C3(C)C (some centres unmarked) [Ia, 3′-tert-Butyl-3′-N-tert-butyloxycarbonyl-4-deacetyl-3′-dephenyl-3′-N-debenzoyl-4-O-methoxycarbonyl-paclitaxel]
Oral Efficacy vs. Sc A2780 Log Cell Kill [1]: 4.4
Oral Efficacy vs. Sc A2780 (Cures/Treated) [1]: 0/8

COC(=O)OC12COC1CC(O)C1(C)C(=O)C(OC(C)=O)C3=C(C)C(OC(=O)C(O)C(NC(=O)CC(C)(C)C)c4ccccc4)CC(O)(C(OC(=O)c4ccccc4)C21)C3(C)C (centres unmarked) [Ic, 3′-N-Neopentylcarbonyl-4-deacetyl-3′-N-debenzoyl-4-O-methoxycarbonyl-paclitaxel]
Oral Efficacy vs. Sc A2780 Log Cell Kill [1]: 3.8
Oral Efficacy vs. Sc A2780 (Cures/Treated) [1]: 0/8

3′-N-Cyclobutyl-4-deacetyl-3′-N-debenzoyl-4-O-methoxycarbonyi-paciitaxel [Id]
Oral Efficacy vs. Sc A2780 Log Cell Kill [1]: 4.1
Oral Efficacy vs. Sc A2780 (Cures/Treated) [1]: 0/8

COC(=O)O[C@@]12CO[C@@H]1C[C@H](O)[C@@]1(C)C(=O)[C@H](OC(C)=O)C3=C(C)[C@@H](OC(=O)[C@H](O)[C@@H](NC(=O)OC(C)(C)C)c4ccccc4)C[C@@](O)([C@@H](OC(=O)c4ccccc4)[C@H]21)C3(C)C [Ig, 4-Deacetyl-3′-N-debenzoyl-3′-N-tertbutoxycarbonyl 4-O-methoxycarbonyl-paclitaxel]
Oral Efficacy vs. Sc A2780 Log Cell Kill [1]: 0.9
Oral Efficacy vs. Sc A2780 (Cures/Treated) [1]: 0/8

COC(=O)O[C@@]12CO[C@@H]1C[C@H](O)[C@@]1(C)C(=O)[C@H](OC(C)=O)C3=C(C)[C@@H](OC(=O)[C@H](O)[C@@H](NC(=O)C4CCC4)C(C)(C)C)C[C@@](O)([C@@H](OC(=O)c4ccccc4)[C@H]21)C3(C)C [Ij, 3′-N-Debenzoyl-3′-N-cyclobutylcarbonyl-3′-dephenyl-3′-tert-butyl-4-deacetyl-4-methoxycarbonyl Paclitaxel]
Oral Efficacy vs. Sc A2780 Log Cell Kill [1]: 2.1
Oral Efficacy vs. Sc A2780 (Cures/Treated) [1]: 0/8

CCCCOC(=O)NC(c1ccccc1)C(O)C(=O)OC1CC2(O)C(OC(=O)c3ccccc3)C3C4(OC(=O)OC)COC4CC(O)C3(C)C(=O)C(OC(C)=O)C(=C1C)C2(C)C (centres unmarked) [Ih, 4-Deacetyl-3′-N-debenzoyl-3′-N-nbutoxycarbonyl-4-O-methoxycarbonyl-paclitaxel]
Oral Efficacy vs. Sc A2780 Log Cell Kill [1]: 1.0
Oral Efficacy vs. Sc A2780 (Cures/Treated) [1]: 1/8

CC(=O)O[C@H]1C(=O)[C@@]2(C)[C@H]([C@H](OC(=O)c3ccccc3)[C@]34OC(=O)O[C@H]3[C@H](OC(=O)[C@H](O)[C@H](CC(C)C)NC(=O)OC(C)(C)C)C(C)=C1C4(C)C)[C@]1(OC(C)=O)CO[C@@H]1C[C@@H]2O [IDN-5109]
Oral activity against tumors in mice [2]: oral activity against tumors in mice

COC(=O)O[C@@]12CO[C@@H]1C[C@H](O)[C@@]1(C)C(=O)[C@H](OC(C)=O)C3=C(C)[C@@H](OC(=O)[C@H](O)[C@@H](NC(=O)CC(C)(C)C)C(C)(C)C)C[C@@](O)([C@@H](OC(=O)c4ccccc4)[C@H]21)C3(C)C [If, 3′-tert-Butyl-4-deacetyl-3′-dephenyl-3′-N-debenzoyl-3′-N-neopentylcarbonyl-4-O-methoxycarbonyl-paclitaxel]
Oral Efficacy vs. Sc A2780 Log Cell Kill [1]: 1.8
Oral Efficacy vs. Sc A2780 (Cures/Treated) [1]: 0/8

CC(=O)O[C@H]1C(=O)[C@@]2(C)[C@H]([C@H](OC(=O)c3ccccc3)[C@]3(O)C[C@H](OC(=O)[C@H](O)[C@@H](NC(=O)c4ccccc4)c4ccccc4)C(C)=C1C3(C)C)[C@]1(OC(C)=O)CO[C@@H]1C[C@@H]2O [paclitaxel]
Antitumor activity on oral administration ([3]; oral, up to 160 mg/kg/day, Suffness et al.): no evidence of antitumor activity
Oral activity in human or animal models [3]: no oral activity
Oral absorption [4]: less than 1%
Activity of orally administered paclitaxel against human tumor xenografts [5]: unsuccessful

COC(=O)OC12COC1CC(O)C1(C)C(=O)C(OC(C)=O)C3=C(C)C(OC(=O)C(O)C(NC(=O)OC4CCCCC4)C(C)(C)C)CC(O)(C(OC(=O)c4ccccc4)C21)C3(C)C (centres unmarked) [Ie, 3′-tert-Butyl-3′-N-cyclohexyloxycarbonyl-4-deacetyl-3′-dephenyl-3′-N-debenzoyl-4-O-methoxycarbonyl-paclitaxel]
Oral Efficacy vs. Sc A2780 Log Cell Kill [1]: 1.5
Oral Efficacy vs. Sc A2780 (Cures/Treated) [1]: 0/8

CC(=O)O[C@@]12CO[C@@H]1C[C@H](O)[C@@]1(C)C(=O)[C@H](O)C3=C(C)[C@@H](OC(=O)[C@H](O)[C@@H](NC(=O)OC(C)(C)C)c4ccccc4)C[C@@](O)([C@@H](OC(=O)c4ccccc4)[C@H]21)C3(C)C [TAXOTERE®, docetaxel]
Oral activity in human or animal models [3]: no oral activity

COC(=O)OC12COC1CC(O)C1(C)C(=O)C(OC(C)=O)C3=C(C)C(OC(=O)C(O)C(NC(=O)OC(C)(C)C)C(C)C)CC(O)(C(OC(=O)c4ccccc4)C21)C3(C)C (centres unmarked) [Ib, 3′-N-tert-Butyloxycarbonyl-4-deacetyl-3′-dephenyl-3′-N-debenzoyl-3′-isopropyl-4-O-methoxycarbonyl-paclitaxel]
Oral Efficacy vs. Sc A2780 Log Cell Kill [1]: 3.0
Oral Efficacy vs. Sc A2780 (Cures/Treated) [1]: 1/8

— US6750246B1, “C-4 carbonate taxanes” (Bristol-Myers Squibb Company, priority 2000, dated 2004)
